Source: PMC12181431, “Unveiling the structure, function and dynamics of StmPr1 in Stenotrophomonas maltophilia virulence” (Scientific Reports, 2025)
Where two headings read alike, the source gives them in different places.

Columns and labels:
[1] = biological target: T1, StmPr1 (Stenotrophomonas maltophilia, UniProt Q93IQ4); assay: X-ray crystal structure ([…] Å) plus protease activity assay; assay type: biochemical
T1 construct: StmPr1 36 kDa (self-digested from 47 kDa, C-terminal extension cleaved)

[2] = biological target: T2, Proteinase K (Parengyodontium album, UniProt P06873); assay: protease activity assay (same assay as for StmPr1); assay type: biochemical
T2 construct: gene PROK
T2 sequence (P06873 106-384): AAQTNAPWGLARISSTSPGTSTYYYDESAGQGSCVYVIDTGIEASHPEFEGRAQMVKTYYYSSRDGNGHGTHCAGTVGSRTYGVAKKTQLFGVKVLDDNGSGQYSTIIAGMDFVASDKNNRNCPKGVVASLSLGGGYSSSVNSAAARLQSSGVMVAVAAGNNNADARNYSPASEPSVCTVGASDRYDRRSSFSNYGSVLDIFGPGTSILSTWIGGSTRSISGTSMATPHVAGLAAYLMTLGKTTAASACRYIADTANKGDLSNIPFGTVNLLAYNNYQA

T1 sequence (Q93IQ4 entry or part of it): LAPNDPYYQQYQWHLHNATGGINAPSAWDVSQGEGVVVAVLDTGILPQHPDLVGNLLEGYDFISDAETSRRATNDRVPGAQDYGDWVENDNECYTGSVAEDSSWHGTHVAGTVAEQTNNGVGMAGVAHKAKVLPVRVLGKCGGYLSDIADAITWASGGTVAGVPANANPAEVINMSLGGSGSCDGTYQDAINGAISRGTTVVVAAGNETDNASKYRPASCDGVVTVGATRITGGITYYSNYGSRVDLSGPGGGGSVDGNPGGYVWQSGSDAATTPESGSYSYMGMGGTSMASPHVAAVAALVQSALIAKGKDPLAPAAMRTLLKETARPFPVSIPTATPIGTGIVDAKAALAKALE

Compound | IC50 [1] | IC50 ([1]; read-out: IC50) | IC50 [2]
O=S(=O)(F)Cc1ccccc1 [PMSF] | 125000 nM | – | –
CC(C)C[C@H](NC(=O)[C@H](Cc1ccccc1)NC(=O)c1cnccn1)B(O)O [Bortezomib] | – | 1970 nM | 1450 nM
